Experimental data taken from patent US10294202B2, “Pyrrolidinones as herbicides” (FMC Corporation, priority 2013, dated 2019).
Like-named read-outs stand apart in the source and are kept apart here.

Legend:
barnyardgrass = test: Test A pre-/postemergence herbicide test; assay type: in vivo, Echinochloa crus-galli; settings: for pest or weed control at 500 g/ha: 0 to 100 scale (0 no effect, 100 complete control)
Method in brief: (§1)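 Both application timings used compounds in a non-phytotoxic solvent plus surfactant. Pre-emergence: soil sprayed directly after seeding into loam/sand. Post-emergence: foliage of 2–10 cm seedlings (1–2 leaves) sprayed. Injury rated ~10 days later, 0–100.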

giant foxtail = test: Test A pre-/postemergence herbicide test; assay type: in vivo, Setaria faberii
Method in brief: as §1

corn = test: Test A pre-/postemergence herbicide test; assay type: in vivo, Zea mays
Method in brief: as §1

rice = test: Test B flooded paddy test; assay type: in vivo, Oryza sativa; settings: Flood, scale of 0 to 100 where 0 is no effect and 100 is complete control
Method in brief: (§2)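 2-leaf plants; flood 3 cm over soil; compound into paddy water; depth held. Greenhouse 13–15 d. Visual rating vs controls, 0 (no effect) to 100 (complete control); dash = not tested.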

sedge, umbrella = test: Test B flooded paddy test; assay type: in vivo, Cyperus difformis; settings: Flood, scale of 0 to 100 where 0 is no effect and 100 is complete control
Method in brief: as §2

wheat (winter wheat) = test: Test C pre-/postemergence herbicide test; assay type: in vivo, Triticum aestivum
Method in brief: (§3)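 Herbicidal effect was judged by eye 13 to 15 days after treatment in the greenhouse, using a 0–100 scale against controls. Chemicals in a non-phytotoxic solvent with surfactant were sprayed onto planted loam/sand soil or onto plants 2 to 18 cm tall in a peat-based growing medium.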

foxtail, giant = test: Test C pre-/postemergence herbicide test; assay type: in vivo, Setaria faberii
Method in brief: as §3

lambsquarters = test: Test C pre-/postemergence herbicide test; assay type: in vivo, Chenopodium album
Method in brief: as §3

morningglory = test: Test C pre-/postemergence herbicide test; assay type: in vivo, Ipomoea coccinea
Method in brief: as §3

nutsedge, yellow = test: Test C pre-/postemergence herbicide test; assay type: in vivo, Cyperus esculentus
Method in brief: as §3

velvetleaf = test: Test C pre-/postemergence herbicide test; assay type: in vivo, Abutilon theophrasti
Method in brief: as §3

[1] = Preemergence, 125 g ai/ha, visual rating on 0 to 100 scale (0 no effect, 100 complete control)
[2] = Postemergence, 31 g ai/ha, scale 0 (no effect) to 100 (complete control)
[3] = Postemergence, 62 g ai/ha, scale 0 to 100 (0 no effect, 100 complete control)
[4] = Postemergence, 125 g ai/ha, scale 0 to 100 (0 no effect, 100 complete control)
[5] = Postemergence, 250 g ai/ha, scale 0 to 100 (0 no effect, 100 complete control)
[6] = Preemergence, 31 g ai/ha, scale 0 to 100, 0 is no effect and 100 is complete control
[7] = Preemergence, 62 g ai/ha, scale 0 to 100
[8] = Preemergence, 125 g ai/ha, scale 0 to 100 (0 no effect, 100 complete control)
[9] = 125 g ai/ha, visual rating, 0 to 100 scale, 0 no effect, 100 complete control, approximately 10 days, preemergence
[10] = Postemergence, 125 g ai/ha, 0 to 100 scale, 0 is no effect, 100 is complete control
[11] = preemergence, 500 g ai/ha, 0 to 100 scale, 0 is no effect and 100 is complete control
[12] = Preemergence, 62 g ai/ha, scale 0 to 100 (0 no effect, 100 complete control)

O=C1NCC(c2ccc(C(F)(F)F)cc2)C1C(=O)Nc1cccc(F)c1F (stereo not shown) [Compound 80, N-(2,3-difluorophenyl)-2-oxo-4-[4-(trifluoromethyl)phenyl]-3-pyrrolidinecarboxamide]
pest or weed control at 125 g/ha (barnyardgrass; Echinochloa crus-galli, post-emergence, 240 h, Postemergence, 125 g ai/ha, 0 to 100 scale, 0 no effect, 100 complete control, read-out: Plant response rating, Barnyardgrass): 80%
pest or weed control at 500 g/ha (barnyardgrass; Echinochloa crus-galli, post-emergence, 240 h, Postemergence, 500 g ai/ha, read-out: Plant response rating, Barnyardgrass): 80%
pest or weed control at 500 g/ha (barnyardgrass; Echinochloa crus-galli, pre-emergence, 240 h, preemergence, 500 g ai/ha, read-out: Plant response rating, Barnyardgrass): 80%
Barnyardgrass plant response rating (barnyardgrass; [1]): 80
Foxtail, Giant plant response rating (giant foxtail; [1]): 90
pest or weed control at 125 g/ha (giant foxtail; Setaria faberi, post-emergence, 240 h, Postemergence, 125 g ai/ha, 0 to 100 scale, 0 no effect, 100 complete control, read-out: Plant response rating, Foxtail, Giant): 80%
pest or weed control at 500 g/ha (giant foxtail; Setaria faberi, post-emergence, 240 h, Postemergence, 500 g ai/ha, 0 to 100 scale (0 no effect, 100 complete control), read-out: Plant response rating, Foxtail, Giant): 80%
pest or weed control at 500 g/ha (giant foxtail; Setaria faberi, pre-emergence, 240 h, preemergence, 500 g ai/ha, 0 to 100 scale, read-out: Plant response rating, Foxtail, Giant): 90%
Corn plant response rating (corn; [1]): 0
Corn plant response rating (crop injury, 0 = no effect, 100 = complete kill) at 125 g/ha (corn; Zea mays, post-emergence, 240 h, Postemergence, 125 g ai/ha, 0 to 100 scale, 0 no effect, 100 complete control): 30%
Corn plant response rating (crop injury, 0 = no effect, 100 = complete kill) at 500 g/ha (corn; Zea mays, post-emergence, 240 h, Postemergence, 500 g ai/ha, 0 to 100 scale (0 no effect, 100 complete control)): 60%
Corn plant response rating (crop injury, 0 = no effect, 100 = complete kill) at 500 g/ha (corn; Zea mays, pre-emergence, 240 h, preemergence, 500 g ai/ha, 0 to 100 scale): 0%
Plant response rating, Rice (rice; 250 g ai/ha): 0
Plant response rating, Sedge, Umbrella (sedge, umbrella; 250 g ai/ha): 0
Plant response rating, Wheat (wheat (winter wheat); [2]): 0
Plant response rating, Wheat (wheat (winter wheat); [3]): 0
Plant response rating, Wheat (wheat (winter wheat); [4]): 0
Plant response rating, Wheat (wheat (winter wheat); [5]): 0
Wheat plant response rating (wheat (winter wheat); [6]): 0
Plant response rating, Wheat (wheat (winter wheat); [7]): 5
Plant response rating, Wheat (wheat (winter wheat); [8]): 80
Plant response rating (scale of 0 to 100), Wheat (wheat (winter wheat); Preemergence, 250 g ai/ha): 80
Plant response rating, Foxtail, Giant (foxtail, giant; [2]): 0
Plant response rating, Foxtail, Giant (foxtail, giant; [3]): 0
Plant response rating, Foxtail, Giant (foxtail, giant; [4]): 45
Plant response rating, Foxtail, Giant (foxtail, giant; [5]): 45
Foxtail, Giant plant response rating (foxtail, giant; [6]): 90
Plant response rating, Foxtail, Giant (foxtail, giant; [7]): 95
Plant response rating, Foxtail, Giant (foxtail, giant; [8]): 98
Plant response rating (scale of 0 to 100), Foxtail, Giant (foxtail, giant; Preemergence, 250 g ai/ha): 98
Plant response rating, Lambsquarters (lambsquarters; [2]): 55
Plant response rating, Lambsquarters (lambsquarters; [3]): 55
Plant response rating, Lambsquarters (lambsquarters; [4]): 60
Plant response rating, Lambsquarters (lambsquarters; [5]): 70
Lambsquarters plant response rating (lambsquarters; [6]): 40
Plant response rating, Lambsquarters (lambsquarters; [7]): 85
Plant response rating, Lambsquarters (lambsquarters; [8]): 90
Plant response rating (scale of 0 to 100), Lambsquarters (lambsquarters; Preemergence, 250 g ai/ha): 90
Plant response rating, Morningglory (morningglory; [2]): 0
Plant response rating, Morningglory (morningglory; [3]): 5
Plant response rating, Morningglory (morningglory; [4]): 5
Plant response rating, Morningglory (morningglory; [5]): 5
Morningglory plant response rating (morningglory; [6]): 0
Plant response rating, Morningglory (morningglory; [7]): 0
Plant response rating, Morningglory (morningglory; [8]): 20
Plant response rating (scale of 0 to 100), Morningglory (morningglory; Preemergence, 250 g ai/ha): 20
Plant response rating, Nutsedge, Yellow (nutsedge, yellow; [2]): 0
Plant response rating, Nutsedge, Yellow (nutsedge, yellow; [3]): 0
Plant response rating, Nutsedge, Yellow (nutsedge, yellow; [4]): 0
Plant response rating, Nutsedge, Yellow (nutsedge, yellow; [5]): 0
Nutsedge, Yellow plant response rating (nutsedge, yellow; [6]): 0
Plant response rating, Nutsedge, Yellow (nutsedge, yellow; [7]): 0
Plant response rating, Nutsedge, Yellow (nutsedge, yellow; [8]): 0
Plant response rating (scale of 0 to 100), Nutsedge, Yellow (nutsedge, yellow; Preemergence, 250 g ai/ha): 10
Plant response rating, Velvetleaf (velvetleaf; [2]): 15
Plant response rating, Velvetleaf (velvetleaf; [3]): 15
Plant response rating, Velvetleaf (velvetleaf; [5]): 25
Velvetleaf plant response rating (velvetleaf; [6]): 0
Plant response rating, Velvetleaf (velvetleaf; [7]): 30
Plant response rating, Velvetleaf (velvetleaf; [8]): 35
Plant response rating (scale of 0 to 100), Velvetleaf (velvetleaf; Preemergence, 250 g ai/ha): 50

O=C1NCC(c2ccc(Cl)cc2)C1C(=O)Nc1cccc(F)c1F (stereo not shown) [Compound 218]
Plant response rating, Barnyardgrass (barnyardgrass; [9]): 80
Plant response rating, Barnyardgrass (barnyardgrass; [10]): 60
Barnyardgrass plant response rating (0 to 100 scale, 0 is no effect, 100 is complete control) (barnyardgrass; Postemergence, 500 g ai/ha): 90
Plant response rating, Barnyardgrass (barnyardgrass; [11]): 90
Plant response rating, Foxtail, Giant (giant foxtail; [9]): 90
Plant response rating, Foxtail, Giant (giant foxtail; [10]): 60
Foxtail, Giant plant response rating (0 to 100 scale, 0 is no effect, 100 is complete control) (giant foxtail; Postemergence, 500 g ai/ha): 90
Plant response rating, Foxtail, Giant (giant foxtail; [11]): 90
Plant response rating, Corn (corn; [10]): 20
Corn plant response rating (0 to 100 scale, 0 is no effect, 100 is complete control) (corn; Postemergence, 500 g ai/ha): 30
Plant response rating, Rice (rice; 500 g ai/ha): 0
Plant response rating, Sedge, Umbrella (sedge, umbrella; 500 g ai/ha): 0
Wheat plant response rating (wheat (winter wheat); [6]): 0
Wheat plant response rating (wheat (winter wheat); [12]): 0
Plant response rating, Wheat (wheat (winter wheat); [8]): 0
Plant response rating (scale of 0 to 100), Wheat (wheat (winter wheat); Preemergence, 250 g ai/ha): 10
Foxtail, Giant plant response rating (foxtail, giant; [6]): 85
Foxtail, Giant plant response rating (foxtail, giant; [12]): 90
Plant response rating, Foxtail, Giant (foxtail, giant; [8]): 90
Plant response rating (scale of 0 to 100), Foxtail, Giant (foxtail, giant; Preemergence, 250 g ai/ha): 95
Lambsquarters plant response rating (lambsquarters; [6]): 10
Lambsquarters plant response rating (lambsquarters; [12]): 40
Plant response rating, Lambsquarters (lambsquarters; [8]): 75
Plant response rating (scale of 0 to 100), Lambsquarters (lambsquarters; Preemergence, 250 g ai/ha): 85
Morningglory plant response rating (morningglory; [6]): 0
Morningglory plant response rating (morningglory; [12]): 0
Plant response rating, Morningglory (morningglory; [8]): 25
Plant response rating (scale of 0 to 100), Morningglory (morningglory; Preemergence, 250 g ai/ha): 20
Nutsedge, Yellow plant response rating (nutsedge, yellow; [6]): 0
Nutsedge, Yellow plant response rating (nutsedge, yellow; [12]): 0
Plant response rating, Nutsedge, Yellow (nutsedge, yellow; [8]): 0
Plant response rating (scale of 0 to 100), Nutsedge, Yellow (nutsedge, yellow; Preemergence, 250 g ai/ha): 0
Velvetleaf plant response rating (velvetleaf; [6]): 0
Velvetleaf plant response rating (velvetleaf; [12]): 0
Plant response rating, Velvetleaf (velvetleaf; [8]): 15
Plant response rating (scale of 0 to 100), Velvetleaf (velvetleaf; Preemergence, 250 g ai/ha): 40
